The target of this test is T1, horse heart myoglobin (Mb) (Equus caballus, UniProt P68082).
T1 construct: Lyophilized horse heart Mb, human Hb, equine heart cytochrome c were in their ferric form when dissolved in buffer; purchased Sigma M1882; host or cells: horse heart
Nature of the test: UV-Vis spectrophotometric ligand affinity study, myoglobin. To be noted: ferric horse heart Mb, PBS pH 7.4, Soret shift 409 to 422 nm; read-out: Kd (binding affinity to ferric Mb heme). The protocol:
UV-Vis spectrophotometric ligand affinity studies for ferric and ferrous-oxy heme proteins were performed using a Cary4000 UV-Vis spectrophotometer. These studies were performed in an aerobic environment. Lyophilized horse heart Mb, human Hb, equine heart cytochrome c were in their ferric form when dissolved in buffer. DosS GAF-A was purified in its ferric form. Ferrous-oxy forms of Mb and hemoglobin (Hb) were prepared by addition of a small aliquot of sodium dithionite to the proteins (in air) and running the protein through PD-10 columns twice to remove excess dithionite/other products. […] The protein concentration was set to ˜1 μM to obtain a desirable absorbance reading at the Soret peak region. […] For those fragments with some intrinsic absorbance in the aforementioned region, a second titration was performed with the same conditions, but without protein. […]
UV-Vis spectrophotometric ligand affinity studies for ferrous heme proteins were performed using a Cary 60 UV-Vis spectrophotometer. […] The sum of the maximal and minimal differences in absorbance was plotted for each concentration point for each ligand. […]
where Y is the observed change in absorbance, A is the maximum change in absorbance, Kd is the dissociation constant of the ligand, L is the ligand concentration and P is the protein concentration. The maximal change in absorbance, A, is obtained through nonlinear regression. […]

T1 sequence (P68082 whole entry): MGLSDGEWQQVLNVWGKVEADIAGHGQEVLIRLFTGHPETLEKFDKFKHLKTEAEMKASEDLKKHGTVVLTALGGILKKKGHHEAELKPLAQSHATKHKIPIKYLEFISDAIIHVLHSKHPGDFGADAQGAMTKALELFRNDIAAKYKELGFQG

For the compound `N#CN1CCSCC1` [HT-N1, thiomorpholine N-carbonitrile], the equilibrium dissociation constant (Kd) came out at 2570 ± 328 µM.

Usually Kd stands for the concentration at which binding is half-saturated.

The values above are taken from patent US20240099997A1, “METALLOENZYME MODULATORS” (Regents of the University of Minnesota, priority 2022, published 2024).
